In PubChem BioAssay AID248 (DTP/NCI, 2004):
Inconclusive results and toxic doses are left out. Cut-off read from the data, not from the text of the source: active = T/C of 150% or more; inactive = T/C below 125%.

System: L1210 leukemia ip in BDF1 mice, survival T/C
Assay: NCI In Vivo Anticancer Drug Screen. Data for tumor model L1210 Leukemia (intraperitoneal) in B6D2F1 (BDF1) mice
Conditions: endpoint: mean survival time, higher = longer survival
How it was run: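 In this screen, tumor-bearing mice given compound are compared to those given vehicle, and their survival values are reported as a treated-to-control quotient.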

[1] = dose: 100.0 mg/kg/injection, schedule: Q04DX003 (ip), vehicle: Klucel (hydroxypropylcellulose) (HPC)
[2] = dose: 200.0 mg/kg/injection, schedule: Q04DX003 (ip), vehicle: Klucel (hydroxypropylcellulose) (HPC)
[3] = dose: 400.0 mg/kg/injection, schedule: Q04DX003 (ip), vehicle: Klucel (hydroxypropylcellulose) (HPC)
[4] = dose: 100.0 mg/kg/injection, schedule: Q04DX003 (ip), vehicle: saline with Tween-80
[5] = dose: 200.0 mg/kg/injection, schedule: Q04DX003 (ip), vehicle: saline with Tween-80
[6] = dose: 400.0 mg/kg/injection, schedule: Q04DX003 (ip), vehicle: saline with Tween-80

Measured: T/C

Nc1ncnc2c1ccn2C1OC(CO)C(O)C1O (stereo not drawn)
inactive: dose: 0.25 mg/kg/injection, schedule: Q01DX Z (ip), vehicle: carboxymethylcellulose (CMC) 101 % of control | dose: 0.5 mg/kg/injection, schedule: Q01DX001 (ip), vehicle: carboxymethylcellulose (CMC) 108 % of control | dose: 0.5 mg/kg/injection, schedule: Q01DX Z (ip), vehicle: carboxymethylcellulose (CMC) 104 % of control | dose: 0.5 mg/kg/injection, schedule: Q02DX009 (ip), vehicle: carboxymethylcellulose (CMC) 109 % of control | dose: 0.5 mg/kg/injection, schedule: Q## X003 (ip), vehicle: carboxymethylcellulose (CMC) 110 % of control | dose: 0.75 mg/kg/injection, schedule: Q01DX Z (ip), vehicle: carboxymethylcellulose (CMC) 104 % of control | dose: 1.0 mg/kg/injection, schedule: Q01DX001 (ip), vehicle: carboxymethylcellulose (CMC) 113 % of control | dose: 1.0 mg/kg/injection, schedule: Q01DX Z (ip), vehicle: carboxymethylcellulose (CMC) 106 % of control | dose: 1.0 mg/kg/injection, schedule: Q02DX009 (ip), vehicle: carboxymethylcellulose (CMC) 115 % of control | dose: 1.0 mg/kg/injection, schedule: Q## X003 (ip), vehicle: carboxymethylcellulose (CMC) 111 % of control | dose: 1.0 mg/kg/injection, schedule: Q## X005 (ip), vehicle: carboxymethylcellulose (CMC) 113 % of control | dose: 1.2 mg/kg/injection, schedule: Q01DX001 (ip), vehicle: carboxymethylcellulose (CMC) 107 % of control | dose: 1.25 mg/kg/injection, schedule: Q01DX Z (ip), vehicle: carboxymethylcellulose (CMC) 116 % of control | dose: 1.9 mg/kg/injection, schedule: Q01DX001 (ip), vehicle: carboxymethylcellulose (CMC) 119 % of control | dose: 2.0 mg/kg/injection, schedule: Q02DX009 (ip), vehicle: carboxymethylcellulose (CMC) 122 % of control | dose: 2.0 mg/kg/injection, schedule: Q## X003 (ip), vehicle: carboxymethylcellulose (CMC) 123 % of control | dose: 2.0 mg/kg/injection, schedule: Q## X005 (ip), vehicle: carboxymethylcellulose (CMC) 120 % of control | dose: 2.5 mg/kg/injection, schedule: Q01DX Z (ip), vehicle: carboxymethylcellulose (CMC) 98 % of control | dose: 4.0 mg/kg/injection, schedule: Q## X005 (ip), vehicle: carboxymethylcellulose (CMC) 102 % of control

CCCCC(CCCC)(C(=O)OCC)C(=O)OCC
inactive: dose: 100.0 mg/kg/injection, schedule: Q04DX002 (ip), vehicle: saline with Tween-80 94 % of control | [1] 96 % of control | dose: 200.0 mg/kg/injection, schedule: Q04DX002 (ip), vehicle: saline with Tween-80 94 % of control | [2] 105 % of control | dose: 400.0 mg/kg/injection, schedule: Q04DX002 (ip), vehicle: saline with Tween-80 94 % of control | [3] 91 % of control

CCC(=O)Nc1ccc(C)cc1C
inactive: dose: 100.0 mg/kg/injection, schedule: Q01DX009 (ip), vehicle: Klucel (hydroxypropylcellulose) (HPC) 92 % of control | [1] 97 % of control | dose: 200.0 mg/kg/injection, schedule: Q01DX009 (ip), vehicle: Klucel (hydroxypropylcellulose) (HPC) 94 % of control | [2] 107 % of control | [3] 96 % of control

CC(OC(=O)c1ccccc1C(=O)O)c1ccccc1 (stereo not drawn)
inactive: dose: 100.0 mg/kg/injection, schedule: Q01DX001 (ip), vehicle: carboxymethylcellulose (CMC) 93 % of control | dose: 200.0 mg/kg/injection, schedule: Q01DX001 (ip), vehicle: carboxymethylcellulose (CMC) 96 % of control | dose: 400.0 mg/kg/injection, schedule: Q01DX001 (ip), vehicle: carboxymethylcellulose (CMC) 96 % of control

NCCc1cnc(N=Nc2ccc(S(=O)(=O)N(CCCl)CCCl)cc2)[nH]1
inactive: [4] 93 % of control | [5] 86 % of control | [6] 89 % of control

COC(C)c1ccccc1 (stereo not drawn)
inactive: dose: 103.0 mg/kg/injection, schedule: Q01DX Z (ip), vehicle: methylcellulose (MC) 91 % of control | dose: 155.0 mg/kg/injection, schedule: Q01DX Z (ip), vehicle: methylcellulose (MC) 96 % of control | dose: 233.0 mg/kg/injection, schedule: Q01DX Z (ip), vehicle: methylcellulose (MC) 96 % of control | dose: 350.0 mg/kg/injection, schedule: Q01DX Z (ip), vehicle: methylcellulose (MC) 102 % of control

O=C(CC(O)(C(F)(F)F)C(F)(F)F)c1ccccc1Br
inactive: [4] 97 % of control | [5] 97 % of control | [6] 95 % of control
